In experiment [1] the test system is IL-2-induced IFN-γ production. Description: IL-2-Induced IFN-γ Production in the Mouse. The conditions noted are these: po, 1 h, by gavage one hour before IL-2, serum IFN-γ, female BALB/c mice, read-out: inhibition of IL-2-induced IFN-gamma production. Format: in vivo. On the procedure:
Administration of IL-2 leads to an increase in serum IFN-γ in the mouse due to NK secretion of the cytokine (Thornton S, Kuhn K A, Finkelman F D and Hirsch R. NK cells secrete high levels of IFN-γ in response to in vivo administration of IL-2. Eur J Immunol 2001 31:3355-3360). The experiment was carried out essentially according to the protocol in Thornton et al. and the test compounds were administered in order to determine the level of inhibition attained. In summary, female BALB/c mice were fasted for 12-18 hours before a study but had free access to water at all times. Test compounds were administered by gavage one hour before intraperitoneal injection of IL-2 and capture antibody. At termination of the studies, the mice were sacrificed by carbon dioxide inhalation, terminal blood samples were collected by cardiac puncture and serum was generated. Serum was stored frozen until it was assayed for IFN-γ, as described by the kit manufacturer (BD Pharmingen™, San Diego, Calif.).

The next experiment relates to kidney transplantation. The conditions noted are these: orally active; Changelian, et al., 2003; cited from earlier work.
In the next experiment the test system is heart transplantation. The conditions noted are these: orally active; Changelian, et al., 2003; cited from earlier work.
Experiment [2] has as its system spontaneous autoimmune diabetes. Conditions: NOD mouse; cited from earlier work.
A further experiment deals with GVHD. Conditions: reviewed in Cetkovic-Cvrlje and Ucken, 2004; cited from earlier work.

Turning to `C[C@@H]1CCN(C(=O)CC#N)C[C@@H]1N(C)c1ncnc2[nH]ccc12` [CP690550], the inhibition at 30 mg/kg in experiment [1] is 96%.

For `C[C@@H]1CCN(C(=O)CC#N)C[C@@H]1N(C)c1ncnc2[nH]ccc12` [CP-690,550], the “animal survival / immunosuppression” value in the experiment on kidney transplantation and in the experiment with heart transplantation was “prolong animal survival” each time.

`O=c1[nH]c2cnc(-n3cnc4ccccc43)nc2n1[C@@H]1CCOc2c(F)cccc21` [Example 16, 2-(1H-Benzo[d]imidazol-1-yl)-9-((R)-8-fluorochroman-4-yl)-7H-purin-8(9H)-one]: the inhibition at 30 mg/kg in experiment [1] was above 40%.

Take `O=c1[nH]c2cnc(-n3cnc4cc(F)ccc43)nc2n1[C@@H]1CCOc2c(F)cccc21` [Example 28, 2-(5-Fluoro-1H-benzo[d]imidazol-1-yl)-9-((R)-8-fluorochroman-4-yl)-7H-purin-8(9H)-one]: in experiment [1], the inhibition at 30 mg/kg is above 40%.

Turning to `Cn1c(=O)n(C2CCOc3c(F)cc(F)cc32)c2nc(-n3cnc4ccc(C#N)cc43)ncc21` (stereo not shown) [Example 501], the inhibition at 30 mg/kg in experiment [1] is above 40%.

Turning to `Cn1c(=O)n(C2CCOc3ccc(F)cc32)c2nc(-n3cnc4ccc(C#N)cc43)ncc21` (stereo not shown) [Example 504], the inhibition at 30 mg/kg in experiment [1] was above 40%.

For `Cn1c(=O)n([C@@H]2CCOc3c(F)cccc32)c2nc(-n3cnc4ccc(C#N)cc43)ncc21` [Example 505], the inhibition at 30 mg/kg in experiment [1] is above 40%.

Consider `COc1cc2ncnc(Nc3ccc(O)cc3)c2cc1OC` [JANEX-1], for which the “spontaneous autoimmune diabetes development” value in experiment [2] is listed as “prevent spontaneous autoimmune diabetes development”. In the experiment with GVHD, the “severity of GVHD” value is “attenuate the severity of GVHD”.

One may read the inhibition as how much of the control response was suppressed.

The values are drawn from patent US20080119496A1, “7-Substituted Purine Derivatives for Immunosuppression” (PHARMACOPEIA DRUG DISCOVERY, INC., priority 2006, published 2008).
